We go through twelve compounds from patent publication US12391697B2, “Condensed bi-heterocycles as inhibiting agents for Bruton's tyrosine kinase” (BIOGEN MA INC., priority 2019, dated 2025).

Structures are written as SMILES. Counter-ions that a name gives are not always drawn. Some results are limits rather than exact numbers.

Assay [1] concerns CD69 expression on CD19+ B cells in whole blood. Put plainly: In Vitro Whole Blood CD69 Assay. Format: cell-based, Human. The following applies: Homo sapiens, B-cell, human heparinized whole blood, anti-human IgD stimulation, percentage of CD19+ B cells expressing CD69; read-out: IC50. Here is the method: In Vitro Whole Blood CD69 Assay
Human heparinized venous blood from health donors was aliquoted into 96-well plate and “spiked” with serial dilutions of formula I compounds in DMSO or with DMSO without drug. The final concentration of DMSO in all wells was 0.1%. The plate was incubated at 37° C. for 30 min. Drug-containing samples were stimulated with 0.1 μg/mL mouse anti-human IgD-dextran (1A62) or 20 μg/mL polyclonal rabbit F(ab′)2 anti-human IgD. Phosphate-buffered saline (PBS) was added to the negative control unstimulated sample and the plates were incubated overnight (18 to 22 hours) at 37° C. Cells were stained with fluorochrome-conjugated anti-CD19 and anti-CD69 antibodies. Lyse/fix solution was used to remove red blood cells by hypotonic lysis and to fix the remaining cells, which were then analyzed by flow cytometry. CD19+ B cells were gated and analyzed for CD69 expression. The percentage of B cells expressing CD69 was plotted versus the log 10 of the concentration of the drug and the best-fit curves (variable Hill slope) were generated to obtain the IC50 value.

The target in another assay is BTK (Homo sapiens (Human), UniProt Q06187). Put plainly: In Vitro BTK Kinase Assay: Btk-PolyGAT-LS Assay. Format: biochemical. The following applies: active BTK enzyme 0.25 nM, ATP 10 μM, polyGAT 100 nM, 30 minutes. The gist of the method: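 Recombinant BTK (0.25 nM) phosphorylating 100 nM polyGAT at 10 μM ATP in Tris-HCl pH 7.5 buffer with MgCl2, DTT, Triton X-100 and casein, 30 min, then EDTA stop.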
Sequence of BTK (Q06187 whole entry): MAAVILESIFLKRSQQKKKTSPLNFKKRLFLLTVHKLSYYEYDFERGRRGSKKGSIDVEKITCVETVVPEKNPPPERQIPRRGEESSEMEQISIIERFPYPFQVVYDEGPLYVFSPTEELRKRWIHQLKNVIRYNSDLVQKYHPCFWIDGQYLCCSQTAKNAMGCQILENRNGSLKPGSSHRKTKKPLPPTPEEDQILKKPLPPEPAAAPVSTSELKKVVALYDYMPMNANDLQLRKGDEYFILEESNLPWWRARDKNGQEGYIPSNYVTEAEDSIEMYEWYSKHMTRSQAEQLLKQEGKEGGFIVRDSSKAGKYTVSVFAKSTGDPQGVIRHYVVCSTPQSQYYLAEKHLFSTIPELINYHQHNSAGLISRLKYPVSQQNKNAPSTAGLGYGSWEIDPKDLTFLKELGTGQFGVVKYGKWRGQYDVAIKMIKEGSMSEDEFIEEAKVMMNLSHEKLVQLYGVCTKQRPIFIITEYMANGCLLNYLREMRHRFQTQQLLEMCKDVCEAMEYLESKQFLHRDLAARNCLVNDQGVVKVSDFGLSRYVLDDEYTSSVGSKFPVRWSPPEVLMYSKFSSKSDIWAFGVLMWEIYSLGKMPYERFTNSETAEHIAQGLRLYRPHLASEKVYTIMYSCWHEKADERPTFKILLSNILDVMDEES

By IC50 is commonly meant the concentration that inhibits the measured activity by half. As for `Cc1cc(-c2ncnn3cc(N4CCC(F)C4)cc23)ccc1CNC(=O)c1noc(C(C)(C)C)n1` (stereo not drawn) [Example 11, 5-(tert-butyl)-N-(4-(6-(3-fluoropyrrolidin-1-yl)pyrrolo[2,1-f][1,2,4]triazin-4-yl)-2-methylbenzyl)-1,2,4-oxadiazole-3-carboxamide trifluoroacetate], the IC50 in assay [1] is 100 to 1000 nM; at BTK it was at most 1 nM.
With `Cc1cc(-c2ncnn3cc(N4CCO[C@H](C)C4)cc23)ccc1CNC(=O)c1noc(C(C)(C)C)n1` (single isomer, unassigned) [Example 30], the results for the IC50 (in assay [1]; against BTK) were 100 to 1000 nM and at most 1 nM, respectively.
Take `COC1CN(c2cc3c(-c4ccc(CNC(=O)c5noc(C(C)(C)C)n5)c(C)c4)ncnn3c2)C1` [Example 8, 5-(tert-butyl)-N-(4-(6-(3-methoxyazetidin-1-yl)pyrrolo[2,1-f][1,2,4]triazin-4-yl)-2-methylbenzyl)-1,2,4-oxadiazole-3-carboxamide]: the results for the IC50 (in assay [1]; against BTK) were 100 to 1000 nM and at most 1 nM, respectively.
For `CC(C)(C)c1nc(C(=O)N[C@@H]2CCCCc3c2ccc(-c2ncnn4cccc24)c3F)no1` [Example 56, (R)-5-(tert-butyl)-N-(1-fluoro-2-(pyrrolo[2,1-f][1,2,4]triazin-4-yl)-6,7,8,9-tetrahydro-5H-benzo[7]annulen-5-yl)-1,2,4-oxadiazole-3-carboxamide hydrochloride] the same measures were 100 to 1000 nM and at most 1 nM.
For the compound `CC(C)(C)c1nc(C(=O)NCc2ccc(-c3ncnn4cc(N5CCOCC5)cc34)cc2C(F)(F)F)no1` [Example 34, 5-(tert-butyl)-N-(4-(6-morpholinopyrrolo[2,1-f][1,2,4]triazin-4-yl)-2-(trifluoromethyl)benzyl)-1,2,4-oxadiazole-3-carboxamide hydrochloride], the IC50 in assay [1] is 100 to 1000 nM; at BTK, at most 1 nM.
For `Cc1c(CNC(=O)c2noc(C(C)(C)CF)n2)ccc(-c2ncnn3cc(-c4cnn(C)c4)cc23)c1F` [Example 33, N-(3-fluoro-2-methyl-4-(6-(1-methyl-1H-pyrazol-4-yl)pyrrolo[2,1-f][1,2,4]triazin-4-yl)benzyl)-5-(1-fluoro-2-methylpropan-2-yl)-1,2,4-oxadiazole-3-carboxamide] the same measures were 100 to 1000 nM and at most 1 nM.
Regarding `Cc1cc(-c2ncnn3cc(N4CCN(C)CC4)cc23)ccc1CNC(=O)c1noc(C(C)(C)C)n1` [Example 4, 5-(tert-butyl)-N-(2-methyl-4-(6-(4-methylpiperazin-1-yl)pyrrolo[2,1-f][1,2,4]triazin-4-yl)benzyl)-1,2,4-oxadiazole-3-carboxamide trifluoroacetate], the IC50 in assay [1] was under 100 nM; against BTK it was at most 1 nM.
Taken in the same sequence, the figures for `Cc1cc(-c2ncnn3cc(-c4cnn(CC(F)F)c4)cc23)ccc1CNC(=O)c1noc(C(C)(C)C)n1` [Example 10, 5-(tert-butyl)-N-(4-(6-(1-(2,2-difluoroethyl)-1H-pyrazol-4-yl)pyrrolo[2,1-f][1,2,4]triazin-4-yl)-2-methylbenzyl)-1,2,4-oxadiazole-3-carboxamide trifluoroacetate] were 100 to 1000 nM and at most 1 nM.
As for `Cc1cc(-c2ccnc3cc(-c4cnn(C)c4)nn23)ccc1CNC(=O)c1noc(C(C)(C)C)n1` [Example 16, 5-(tert-butyl)-N-(2-methyl-4-(2-(1-methyl-1H-pyrazol-4-yl)pyrazolo[1,5-a]pyrimidin-7-yl)benzyl)-1,2,4-oxadiazole-3-carboxamide trifluoroacetate], the IC50 in assay [1] is 100 to 1000 nM; at BTK it was at most 1 nM.
Take `Cn1cc(-c2cc3c(-c4ccc(CNC(=O)c5noc(C(C)(C)C)n5)c(C(F)F)c4F)ncnn3c2)cn1` [Example 36, 5-(tert-butyl)-N-(2-(difluoromethyl)-3-fluoro-4-(6-(1-methyl-1H-pyrazol-4-yl)pyrrolo[2,1-f][1,2,4]triazin-4-yl)benzyl)-1,2,4-oxadiazole-3-carboxamide hydrochloride]: the IC50 in assay [1] is 100 to 1000 nM; against BTK, at most 1 nM.
Taken in the same sequence, the figures for `Cc1cc(-c2ncnn3cc(N4C[C@H](C)O[C@@H](C)C4)cc23)ccc1CNC(=O)c1noc(C(C)(C)C)n1` (single isomer, unassigned) [Example 44, hydrochloride] were 100 to 1000 nM and at most 1 nM.
For `CC(C)(C)c1nc(C(=O)NCc2cc(F)c(-c3ncnn4cc(N5CCOCC5)cc34)cc2Cl)no1` [Example 1, 5-tert-butyl-N-[[2-chloro-5-fluoro-4-(6-morpholinopyrrolo[2,1-f][1,2,4]triazin-4-yl)phenyl]methyl]-1,2,4-oxadiazole-3-carboxamide], the figures for the IC50 (in assay [1]; against BTK) were over 1000 nM and at most 1 nM, respectively.
